One compound from BindingDB's records for doi:10.1016/j.bmcl.2009.03.165 (Gsk, 2009) can be followed below.

For this experiment, the target named is T1, Beta-secretase 2 (Homo sapiens, UniProt Q9Y5Z0).
T1 sequence (Q9Y5Z0 whole entry): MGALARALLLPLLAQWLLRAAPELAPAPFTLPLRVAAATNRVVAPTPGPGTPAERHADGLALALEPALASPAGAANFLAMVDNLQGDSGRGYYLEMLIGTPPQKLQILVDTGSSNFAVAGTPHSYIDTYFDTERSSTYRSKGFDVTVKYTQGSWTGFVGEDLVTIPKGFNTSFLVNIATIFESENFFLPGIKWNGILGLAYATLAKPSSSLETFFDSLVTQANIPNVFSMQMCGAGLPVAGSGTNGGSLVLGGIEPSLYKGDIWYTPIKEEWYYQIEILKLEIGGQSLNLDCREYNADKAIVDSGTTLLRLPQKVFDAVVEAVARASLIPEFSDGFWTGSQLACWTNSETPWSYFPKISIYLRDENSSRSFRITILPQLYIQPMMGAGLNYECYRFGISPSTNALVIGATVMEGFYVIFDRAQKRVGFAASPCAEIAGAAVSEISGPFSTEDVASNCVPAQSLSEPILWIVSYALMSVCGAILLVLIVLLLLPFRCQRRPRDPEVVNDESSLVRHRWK
Kind of experiment: Enzyme Inhibition Assay.

Compound `CCNc1cc(C(=O)N[C@@H](Cc2ccccc2)[C@H](O)CNCc2cccc(C(F)(F)F)c2)cc(N2CCCCS2(=O)=O)c1` [BMCL193664 Compound 24] yielded an IC50 of 1410 nM.
